{"source": "patent US8067640B2", "about": "“Method for the separation of intermediates which may be used for the preparation of escitalopram” (H. Lundbeck A/S, priority 2002, dated 2011)", "test": "Partition of compound A and compound B between aqueous layer and toluene layer in the presence of various acids", "conditions": "40° C., 1 hour", "experimental": "Thus-obtained mixed solvent was separated into aqueous layer and toluene layer, and then the concentrations of compound A and B in each layer were measured. Partition coefficients Ka or Kb are calculated according to the following equation. Ka=(Concentration of the compound A in aqueous layer)/(Concentration of the compound A in toluene layer) Kb=(Concentration of the compound B in aqueous layer)/(Concentration of the compound B in toluene layer)", "data": [{"smiles": "CN(C)CCC[C@](O)(c1ccc(F)cc1)c1ccc(C#N)cc1CO", "note": "[compound A, (S)-4-[4-dimethylamino-1-(4′-fluorophenyl)-1-hydroxybutyl]-3-hydroxymethylbenzonitrile]", "values": [{"measurement": "Partition coefficient Ka", "setting": "3-Phenylpropionic acid", "result": 5.67}, {"measurement": "Partition coefficient Ka", "setting": "4-Biphenylcarboxylic acid", "result": 0.87}, {"measurement": "Partition coefficient Ka", "setting": "Benzoic acid", "result": 18.4}, {"measurement": "Partition coefficient Ka", "setting": "Caproic acid", "result": 5.04}, {"measurement": "Partition coefficient Ka", "setting": "Cyclohexanecarboxylic acid", "result": 3.89}, {"measurement": "Partition coefficient Ka", "setting": "Isobutyric acid", "result": 39.2}, {"measurement": "Partition coefficient Ka", "setting": "Isophthalic acid", "result": 7.43}, {"measurement": "Partition coefficient Ka", "setting": "Isovaleric acid", "result": 24.4}, {"measurement": "Partition coefficient Ka", "setting": "Maleic acid", "result": 31.1}, {"measurement": "Partition coefficient Ka", "setting": "Malonic acid", "result": 38.5}, {"measurement": "Partition coefficient Ka", "setting": "Oxalic acid", "result": 1092}, {"measurement": "Partition coefficient Ka", "setting": "Phthalic acid", "result": 20.8}, {"measurement": "Partition coefficient Ka", "setting": "Pivalic acid", "result": 9.03}, {"measurement": "Partition coefficient Ka", "setting": "Salicylic acid", "result": 13.0}, {"measurement": "Partition coefficient Ka", "setting": "Succinic acid", "result": 24.1}, {"measurement": "Partition coefficient Ka", "setting": "Terephthalic acid", "result": 16.8}, {"measurement": "Partition coefficient Ka", "setting": "acid: None", "result": 0.17}, {"measurement": "Partition coefficient Ka", "setting": "m-Chlorobenzoic acid", "result": 4.98}, {"measurement": "Partition coefficient Ka", "setting": "m-Methoxybenzoic acid", "result": 9.23}, {"measurement": "Partition coefficient Ka", "setting": "m-Nitrobenzoic acid", "result": 19.5}, {"measurement": "Partition coefficient Ka", "setting": "m-Toluic acid", "result": 6.00}, {"measurement": "Partition coefficient Ka", "setting": "o-Chlorobenzoic acid", "result": 22.8}, {"measurement": "Partition coefficient Ka", "setting": "o-Methoxybenzoic acid", "result": 27.1}, {"measurement": "Partition coefficient Ka", "setting": "o-Nitrobenzoic acid", "result": 30.7}, {"measurement": "Partition coefficient Ka", "setting": "o-Toluic acid", "result": 9.11}, {"measurement": "Partition coefficient Ka", "setting": "p-Chlorobenzoic acid", "result": 7.01}, {"measurement": "Partition coefficient Ka", "setting": "p-Ethylbenzoic acid", "result": 2.28}, {"measurement": "Partition coefficient Ka", "setting": "p-Fluorobenzoic acid", "result": 14.4}, {"measurement": "Partition coefficient Ka", "setting": "p-Hydroxybenzoic acid", "result": 70.8}, {"measurement": "Partition coefficient Ka", "setting": "p-Methoxybenzoic acid", "result": 12.3}, {"measurement": "Partition coefficient Ka", "setting": "p-Toluenesulfonic acid", "result": 164}, {"measurement": "Partition coefficient Ka", "setting": "p-Toluic acid", "result": 5.97}]}]}
